Test results taken from a melting point compilation (Tetko et al.; mined from patent text by program, amines drawn as free bases though some values may be those of a salt).

Row | melting point | SMILES
1 | 66 to 67 °C | COC(=O)CCCCCCNC(=O)c1cn2c3c(cccc13)CCC2
2 | 263 °C | N#Cc1cc(-c2cc(C(F)F)c3cn[nH]c3n2)ccc1N
3 | 78 °C | C=CCOc1ccccc1N(CC1CO1)S(C)(=O)=O (stereo not given)
4 | 234 to 235 °C | COc1ccc(C(=O)Nc2ccc(C(C)(C)C(N)=O)cc2)cc1
5 | 246 to 247 °C | Cc1ccc(C)c(CNc2c(NC(C)(C)C)c(=O)c2=O)c1
6 | 203 to 205 °C | Clc1c2ccccc2nc2c1c(CBr)nn2-c1ccccn1
7 | 156 to 158 °C | O=C(O)c1ccc(C(F)(F)F)c([N+](=O)[O-])c1
8 | 124 to 125 °C | Cc1nc(-c2cn(CCC3CC3)nn2)sc1C(=O)NCc1cccnc1
9 | 69 to 70 °C | COC(=O)C(O)C(CC(C)C)NC(=O)C(CC(C)C)NC(=O)C(CC(=O)N1CCOCC1)Cc1cccc2ccccc12 (mixture of isomers)
10 | 93 °C | Cc1c(C)c2c(c(C)c1C=O)OC(C)(C)C2
11 | 181 °C | O=C1c2ccccc2S(=O)(=O)N1CCNCC1COc2ccccc2O1 (stereo not given)
12 | 58 to 60 °C | CN(C(=O)Nc1ccc2c(ccn2C)c1)c1cccnc1
13 | 262 to 263 °C | Cc1ccc(NS(=O)(=O)c2ccc(Cl)nc2)c2[nH]cc(C#N)c12
14 | 107 to 108 °C | CCCCOc1ccc(C(=O)c2ccc(OCCBr)cc2)cc1
15 | 107 to 109 °C | Cc1ccc(-n2nc(C(=O)CCCO[N+](=O)[O-])cc2-c2ccc(S(C)(=O)=O)cc2)cc1
16 | 99 °C | CCOC(=O)c1c(C)nc2c(cnn2CCCC#N)c1OCC
17 | 162 to 164 °C | CCc1[nH]n(C2CCCC2)c2nc(Cc3ccncc3)nc(=O)c1-2
18 | 215 to 220 °C | CCOC(=O)Cn1c2cccccc-2c(C(N)=O)c1=O
19 | 81 to 82 °C | OCc1cc2c3ccccc3n(Cc3ccccc3)c2s1
20 | 56 to 58 °C | CCOC(=O)C(=O)N(CC)C(=O)OCCOc1ccc(Oc2ccccc2)cc1
21 | 200 °C | O=C1Nc2ccccc2SC1c1ccccc1Cl (stereo not given)
22 | 186 to 188 °C | CC(=O)c1c(C)[nH]c(C2CCCCC2)c1C
23 | 189 to 190 °C | COC(=O)CCC(=O)Oc1c(C)n(Cc2ccccc2)c2c(OCc3ccccc3)nncc12
24 | 293 to 295 °C | CC1(N)CN(c2cc3c(cc2F)c(=O)c(C(=O)O)cn3C2CC2)C1

Row | melting point | SMILES
25 | 173 to 174 °C | Cc1ccn(-c2ccc(S(C)(=O)=O)cc2)c1-c1ccc(Cl)cc1
26 | 168 to 171 °C | Cc1c(C)c2c(c(C)c1O)CCC(C)(CC(=O)O)O2 (stereo not given)
27 | 214 to 216 °C | CN(Cc1ccc(NC(=O)C2=Cc3cc(-c4ccc5c(c4)CCO5)ccc3S(=O)(=O)CC2)cc1)C1CCOCC1
28 | 221 to 223 °C | CN1CC[C@@H](c2c(O)cc(O)c3c(=O)cc(-c4cccc(F)c4Cl)oc23)[C@@H]1CO
29 | 119 to 122 °C | Cc1ccc(C)n1N(C)c1ccc(N2CCOCC2)nn1
30 | 111 to 113 °C | CCCCCCCCCCc1csc2c1sc1c3scc(CCCCCCCCCC)c3sc21
31 | 280 to 281 °C | CC(C)(C)c1cc(C2=C(c3cc(C(C)(C)C)c(O)c(C(C)(C)C)c3)C2=C(C#N)C#N)cc(C(C)(C)C)c1O
32 | 115 °C | CCN(CCO)C(=O)c1ccc(C(=O)N2CCN(c3ncccc3NC(C)C)CC2)cc1
33 | 47 to 57 °C | CC(C)c1cc(CCC(=O)OCC(C)(C)C2OCC3(CO2)COC(C(C)(C)COC(=O)CCc2cc(C(C)C)c(O)c(C(C)(C)C)c2)OC3)cc(C(C)(C)C)c1O (stereo not given)
34 | 136 to 139 °C | CC(C)c1nc(CO)n(Cc2cccnc2)c1Sc1cc(Cl)cc(Cl)c1
35 | 108 to 110 °C | COc1ccc(NCCCN)c2c1C(=O)c1ccccc1C2=O
36 | 195 to 199 °C | COC(=O)c1cscc1NC(=O)NCCN1CCN(c2ccccc2OC)CC1
37 | 139 to 141 °C | O=C1c2ccccc2OC2CCCON12 (stereo not given)
38 | 199 to 201 °C | COc1ccc(CC(=O)NC(NC(Cc2ccccc2C)=NC#N)C(C)(C)C)cc1 (stereo not given)
39 | 170 to 175 °C | Cc1nc(-c2ccc(CCN3CCN(c4cccc(C(F)(F)F)c4)CC3)cc2)cs1
40 | 211 to 214 °C | FC(F)(F)c1cc(-c2ccc(Cl)nn2)ccc1Cl
41 | 116 to 118 °C | C=C(c1ccc(OC)cc1)c1cc(C(=C)c2ccc(OC)cc2)cc(C(=C)c2ccc(OC)cc2)c1
42 | 274 °C | Cc1oc(-c2ccc(S(C)(=O)=O)cc2)c(Oc2ccc(Cl)cc2)c(=O)c1Cl
43 | 210 to 216 °C | Cc1cc(C=C2SC(=S)NC2=O)cc(C(C)(C)C)c1O
44 | 230 to 231 °C | COc1cc(C=CC(=O)Nc2c(OC)nc3c(C)cc(C)cc3c2-c2ccccc2Cl)cc(OC)c1OC(C)=O
45 | 105 to 108 °C | CCCCC1(CCn2ccnc2)SCCS1
46 | 112 °C | CCc1cc(Br)cc(CC)c1N=C(c1ccccc1)c1ccccc1
47 | 79 to 87 °C | COCNC(=O)c1snc(Cl)c1Cl
48 | 59 °C | O=[N+]([O-])CS(=O)(=O)c1ccccc1F

Row | melting point | SMILES
49 | 64 to 67 °C | COC(=N)NC(=O)NC(C)C
50 | 82 to 83 °C | COCC(C#N)=Cc1ccc(OC)c(OC)c1
51 | 138 to 139 °C | CCOc1nn(-c2ccc(C(F)(F)F)cn2)cc1CCCOc1ccc(OC)cc1CC(=O)O
52 | 240 to 245 °C | CCOC(=O)c1cnc2cc(C)sc2c1O
53 | 180 to 182 °C | Cc1ccc(S(=O)(=O)NCCCCOc2ccc(-c3nnn[nH]3)cc2)cc1
54 | 242 to 243 °C | O=C(c1cc(O)ccc1Nc1ccncc1)N1CCCCC1
55 | 64 to 68 °C | COc1cc(OC)c(N2CCCC2)cc1/C=C/C(=O)c1ccc(S(=O)(=O)NCCCN2CCN(C)CC2)cc1
56 | > 300 °C | NC(=O)Nc1ccc(-c2c[nH]c(=O)cn2)cc1
57 | 168 to 171 °C | CCOC(=O)c1sc(=O)[nH]c1-c1cccc(C(F)(F)F)c1
58 | 258 °C | N#CC(=Cc1ccc(O)c(O)c1)C(=O)Nc1ccccc1
59 | 261 to 262 °C | COc1cccc2c(=O)[nH]c(C)nc12
60 | 76.8 to 78.8 °C | Clc1ccc(C=Cc2nc(CNc3ccc(CCCCn4ccnn4)cc3)co2)cc1Cl
61 | 148 °C | Nc1cc(Cl)nc(SCc2cccc(O)c2)n1
62 | 183 to 184 °C | COc1ccc(CN2C(=O)C3(COc4cc5c(C)noc5cc43)c3ccccc32)cc1 (stereo not given)
63 | 99 to 101 °C | Cc1nc(NC(=O)c2cccc3ccccc23)sc1C(=O)NCc1ccccc1
64 | 128 °C | Cc1ccc(S(=O)(=O)N2[C@@H](C#N)CC[C@H]2c2ccc(F)cc2)cc1 (racemic)
65 | 252 to 256 °C | CC1(C)CCC(C)(C)c2cc(C#Cc3ccc(C(=O)O)cc3)ccc21
66 | 157 to 158 °C | O=C(O)C(Cc1cnc2cc(OCc3ccc(Cl)cc3)ccc2c1)Sc1ccccc1 (stereo not given)
67 | 194 °C | Oc1ccc2c(c1)nc(NC1CCN(CCNc3ncccn3)CC1)n2Cc1ccc(F)cc1
68 | 222 to 223 °C | COc1cc(OC)c2c(=O)[nH]c(-c3ccc(OCCNC(C)C)c(-c4cccc(S(C)(=O)=O)c4)n3)nc2c1
69 | 80 to 95 °C | COC1(C)c2ccc(C#Cc3cc(Cl)ccc3OCC(=O)O)cc2S(=O)(=O)C1(C)C (stereo not given)
70 | 131 °C | COc1ccc(C2=NOC(C)(/C(N)=C/OC(C)=O)C2)cc1OC1CCCC1 (stereo not given)
71 | 51 °C | CCOC(=O)c1ccc(OCCCCCCc2cc(C)no2)cc1
72 | 170 to 171 °C | CCCc1c(OCCCCCCc2cc(C)c(O)c(O)c2C)ccc(C(=O)O)c1O

Row | melting point | SMILES
73 | 153 to 155 °C | Fc1cc(Cl)cc2cc(-c3ccccc3)[nH]c12
74 | > 300 °C | O=C1CCC(c2ccc3[nH]c(-c4ccnnc4)cc3c2)=NN1
75 | 225 to 226 °C | Cc1ccc(C(=O)Nc2c(NC(=O)CN3CCOCC3)ccc3c2C(=O)c2ccccc2C3=O)cc1
76 | 121 °C | CCOC(=O)c1c(N2CCN(C(=O)c3ccco3)CC2)c2cc(F)cnc2n(Cc2cccc(F)c2)c1=O
77 | 113 to 114 °C | COc1ccc(C(=CCCC(=O)O)c2ccc(OC)cc2)cc1
78 | 53 to 54 °C | O=CCCCCCCCCCCC(=O)O
79 | 55 to 56 °C | CCCCCOc1ccc(C=O)cc1O
80 | 185 to 186 °C | CCN1CCCC1CNC(=O)c1cc(Cl)c(O)cc1OC (stereo not given)
81 | 64 to 66 °C | CC(c1ccc(Cl)cc1)N1CCC2(CC1)Cc1ccccc1O2 (stereo not given)
82 | 148 to 158 °C | Cc1ccc(S(=O)(=O)N2CCC[C@H]2C(=O)N[C@@H](Cc2ccc(NC(=S)NCCN3CCCCC3)cc2)C(=O)O)cc1
83 | 132 °C | COCCOc1ccc(/C=C/C(=O)O)c(Oc2ncc(C(F)(F)F)cc2Cl)c1
84 | 233 to 234 °C | Cc1cc(-c2ccc(C(F)(F)F)nc2)cc(-c2cccc(-c3cccc(S(N)(=O)=O)c3)n2)n1
85 | 61.5 to 62.5 °C | COc1ccc(C(=O)Oc2ccccc2)c(O)c1
86 | 230 to 232 °C | Cc1c[nH]c(=O)c(NC(=O)c2ccccc2F)c1
87 | 144 °C | CCOC(=O)C(=CC=C(SC)C(=O)c1ccc(O)c(O)c1)N(C)C
88 | 157 to 158 °C | O=C(O)c1cccc(-c2ccc3c(c2)C(c2ccc(Cl)cc2Cl)CC3)c1 (stereo not given)
89 | 110 °C | CCCCOc1cccc(Cn2[nH]c(N)cc2=O)c1
90 | 153 °C | CCCNc1nc(N)nc2c1ncn2C1CC(F)C(CO)O1 (stereo not given)
91 | 165 °C | COC(=O)c1ccc(CBr)c(OCC(=O)c2ccc(OC)c(C34CC5CC(CC(C5)C3)C4)c2)c1
92 | 71 to 73 °C | Cc1ccc(C(C)(C)CCCCC(=O)O)cc1C
93 | 203 to 205 °C | O=C1O[C@@H](CNC(=O)C(F)(F)F)CN1c1ccc2c(c1)CCCc1cnoc1-2
94 | 203 °C | N#Cc1ccc(N(Cc2ccc(Br)cc2)n2cnnc2)cc1
95 | 88 to 89 °C | CCCCc1c(Cl)cccc1NC(=O)C(C)(C)C
96 | 254 to 256 °C | CC(SSc1ccccc1C(=O)Nc1ccc(S(N)(=O)=O)cc1)C(=O)NCC(=O)O (stereo not given)

Row | SMILES | melting point
97 | CNC(Cc1ccc(Cl)cc1[N+](=O)[O-])c1ccsc1C (stereo not given) | 44 to 46 °C
98 | CCCOc1cc(-c2cc(C=CC(=O)O)ccc2O)cc2c1C(C)(C)CCC2(C)C | 114 to 116 °C
99 | CCC(=O)N1N=C(c2ccc(N)cc2)c2cc(Br)ccc2CC1C (stereo not given) | 99 to 102 °C
100 | Cc1ncc2n1-c1ccc(Cl)cc1C(c1ccccc1F)=NC2O (stereo not given) | 185 to 186 °C
